Test results taken from paper PMC5412877, “Discovery of a PCAF Bromodomain Chemical Probe” (Angewandte Chemie (International Ed. in English), 2016).
Values joined by “and” are separate entries in the source; they are usually repeats but may differ in a detail not shown here. Identical values can stand only once. Like-named read-outs stand apart in the source and are kept apart here.

Experiments:
Format in all cases: binding
[1] = biological target: T1, PCAF Brd (Homo sapiens, UniProt Q92831); assay: Differential scanning fluorimetry (DSF), PCAF Brd; settings: compound concentration 10 μM
T1 construct: Human bromodomains were cloned, expressed and purified as previously described; made in house
T1 sequence (Q92831 723-827 limits assumed): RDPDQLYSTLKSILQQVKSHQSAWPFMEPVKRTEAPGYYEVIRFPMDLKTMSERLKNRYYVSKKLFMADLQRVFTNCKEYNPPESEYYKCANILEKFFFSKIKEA
Protocol: (§1) Protein Expression and Purification
(§2) Human bromodomains were cloned, expressed and purified as previously described.[1]
(§3) Differential Scanning Fluorimetry (DSF)
(§4) Thermal melting points were recorded using an Mx3005p Real Time PCR Machine (Stratagene).
(§5) Subject proteins were buffered in 10 mM HEPES at pH 7.5, 500 mM NaCl and assayed in a 96-well […]
(§6) plate at a final concentration of 2 μM in 20 μL volume. Compounds were then added to a final […]
(§7) concentration of 10 μM. SPYRO Orange (Molecular Probes) was used as a fluorescent probe at a […]
(§8) dilution of 1:1000. Excitation and emission filters for the SPYRO-Orange dye were set to 465 nm and […]
(§9) 590 nm, respectively. The temperature was raised with a step of 3 °C/min from 25 °C to 96 °C and […]
(§10) fluorescence readings were taken at each interval. Data was analysed as previously described.[2]
(§11) Bromodomain affinity selectivity panel of (S)-11
(§12) Supplemental Figure 1. DSF Selectivity panel of (S)-11 against 48 human Bromodomains. […]
(§13) ┼Mean ΔTm ± SEM (number of measurements= 2). Compound concentration: 10 μM […]
(§14) (1 picture or pasted object on this page, not shown here)

[2] = biological target: T2, GCN5L2 (Homo sapiens, UniProt Q92830); assay: Differential scanning fluorimetry (DSF), GCN5 (GCN5L2) Brd; settings: compound 10 μM; for ΔTm at 10 µM: read-out: GCN5L2 ΔTm (°C) (DSF)
T2 construct: made in house
T2 sequence (Q92830 728-832 limits assumed): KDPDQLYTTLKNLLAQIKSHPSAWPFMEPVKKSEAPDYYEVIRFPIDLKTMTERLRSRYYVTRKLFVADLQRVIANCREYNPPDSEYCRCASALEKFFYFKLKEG
Protocol: as §1, §2, §3, §4, §5, §6, §7, §8, §9, §10, §11, §12, §13, §14

[3] = biological target: T1, PCAF Brd; assay: Isothermal titration calorimetry (ITC), PCAF Brd
Protocol: Isothermal Titration Calorimetry (ITC)
Experiments were carried out on a Nano-ITC Standard Volume Instrument (TA Instruments). All experiments were carried out at 25 °C in 20 mM HEPES pH 7.5, 150 mM NaCl, 0.5 mM TCEP and 5% glycerol. Protein solutions were buffer exchanged by gel filtration. The titrations were conducted using an initial injection of 2 μL followed by 32 injections of 8 μL. Background dilution heat was substracted from each experiment. Thermodynamic parameters were calculated using ΔG = ΔH-T ΔS = -RTlnKB , where KD = 1/KB. ΔG, ΔH and ΔS are changes in free energy, enathalpy and entropy resepectively. Independent single site binding models were employed in data analysis.
Supplemental Figure 3. ITC trace of D-Moses and PCAF Brd […]

[4] = Table 2, read-out: K D (nM) (ITC) PCAF Brd
[5] = Table 1, read-out: K D [μM] (ITC) PCAF Brd
[6] = Supplemental Table 3, compound concentration 30 μM, protein concentration 280-320 μM, read-out: PCAF KD (μM) (ITC)

Structure (SMILES)	ΔT m [°C] PCAF (DSF) [1]	ΔTm at 10 µM [2] [°C]	Kd [3, 4] [nM]	Kd [3, 5] [nM]	Kd [3, 6] [nM]	GCN5L2 ΔTm (°C) (DSF) [2]
Cc1ccc([C@@H]([C@H](C)Nc2nn3c(C)nnc3c3ccccc23)N(C)C)cc1 (relative stereo) [Compound 41]	7.8 °C	4.3	160 ± 54			
Cc1nnc2c3ccccc3c(N[C@@H](C)[C@H](c3ccc(C(F)(F)F)cc3)N(C)C)nn12 (relative stereo) [Compound 43]	9.1 °C	7.2	163 ± 117			
Cc1nnc2c3ccccc3c(NCCCN(C)C)nn12 [Compound 8]				> 30000		
Cc1nnc2c3ccccc3c(NCCCCN(C)C)nn12 [Compound 9]	0.9 °C	0.3		> 30000		
Cc1nnc2c3ccccc3c(NCC(c3ccccc3)N(C)C)nn12 (stereo not drawn) [Compound 10]	1.7 °C			1000		
Cc1nnc2c3ccccc3c(NC(C)CN(C)C)nn12 (stereo not drawn) [Compound 11]	5.6 °C	2.5		300 ± 39	298	
CCC(CN(C)C)Nc1nn2c(C)nnc2c2ccccc12 (stereo not drawn) [Compound 12]	3.3 °C	1.1		1800 ± 230	1760	
Cc1nnc2c3ccccc3c(NC(CC(C)C)CN(C)C)nn12 (stereo not drawn) [Compound 13]	0.9 °C and 0.85 °C	1.1		> 30000		
CCN(CC)CC(C)Nc1nn2c(C)nnc2c2ccccc12 (stereo not drawn) [Compound 14]	0 °C	0		> 30000		
Cc1nnc2c3ccccc3c(NCC(C)N(C)C)nn12 (stereo not drawn) [Compound 15]	4.6 °C	1		7300 ± 1100		
CCC(CNc1nn2c(C)nnc2c2ccccc12)N(C)C (stereo not drawn) [Compound 16]				6900 ± 1400		
COC(=O)c1ccc([C@@H]([C@H](C)Nc2nn3c(C)nnc3c3ccccc23)N(C)C)cc1 [Compound 40]	9.6 °C	6.3	133 ± 15			
Cc1nnc2c3ccccc3c(N[C@@H](C)[C@H](c3ccc(Cl)cc3)N(C)C)nn12 [Compound 42]	6.2 °C	2.7	223 ± 78			
COc1ccc([C@@H]([C@H](C)Nc2nn3c(C)nnc3c3ccccc23)N(C)C)cc1 [Compound 44]	10.3 °C	6.8	179 ± 48			
Cc1nnc2c3ccccc3c(NC3CCCN(C)C3=O)nn12 (stereo not drawn) [Compound 50]	1.1 °C	0.1				
Cc1nnc2c3ccccc3c(NC(CO)c3ccccc3)nn12 (stereo not drawn) [Compound 51]	1.0 °C	0				
Cc1nnc2c3ccccc3c(N[C@H]3CCCN(Cc4ccccc4)C3)nn12 [Compound 56]	0.6 °C	0.1			> 30000	
COc1cccc(N2CC(Nc3nn4c(C)nnc4c4ccccc34)CC2=O)c1 (stereo not drawn) [Compound 57]	0.4 °C				> 30000	0.1
Cc1nnc2c3ccccc3c(NCC3COCCN3C)nn12 (stereo not drawn) [Compound 58]	2.7 °C	0.4				
CC(=O)O.Cc1nnc2c3ccccc3c(NCCN3CCCC3)nn12 [Compound 59]	3.7 °C				4300	0.7
Cc1nnc2c3ccccc3c(NCC3CCCCN3C)nn12 (stereo not drawn) [Compound 60]	2.9 °C	1.1			1130	
Cc1nnc2c3ccccc3c(N[C@H]3C[C@@H]4CC[C@H]3C4)nn12 [Compound 61]	0.5 °C					0
Cc1nnc2c3ccccc3c(N3CCN(CCN4CCCCC4)CC3)nn12 [Compound 62]	0.2 °C	0.3			> 30000	
CCN1CCCCC1CNc1nn2c(C)nnc2c2ccccc12 (stereo not drawn) [Compound 63]	0.2 °C	0				
Cc1nnc2c3ccccc3c(N[C@@H]3CCCN(Cc4ccccc4)C3)nn12 [Compound 64]	1.1 °C				> 30000	0.5

Structure (SMILES)	ΔT m [°C] PCAF (DSF) [1]	ΔTm at 10 µM [2] [°C]	Kd [3, 4] [nM]	Kd [3, 5] [nM]	Kd [3, 6] [nM]	GCN5L2 ΔTm (°C) (DSF) [2]
Cc1nnc2c3ccccc3c(N[C@@H]3CCCN(C(=O)OCc4ccccc4)C3)nn12 [Compound 65]					> 30000	
Cc1nnc2c3ccccc3c(N[C@H]3CCCC[C@@H]3N(C)C)nn12 [Compound 66]	0.6 °C				> 30000	0.1
Cc1nnc2c3ccccc3c(N[C@@H]3CCC[C@H]3N(C)C)nn12 [Compound 67]	0.7 °C	0.3			321	
Cc1nnc2c3ccccc3c(N3CCC(N(C)C)C3)nn12 (stereo not drawn) [Compound 68]	0.8 °C				> 30000	0.1
Cc1nnc2c3ccccc3c(NCCN3CCN(C)CC3)nn12 [Compound 69]	0.9 °C	0			> 30000	
Cc1nnc2c3ccccc3c(NC(C)CN3CCC(C)CC3)nn12 (stereo not drawn) [Compound 70]	0 °C	0.1			> 30000	
Cc1nnc2c3ccccc3c(NC(C)c3ccccn3)nn12 (stereo not drawn) [Compound 71]					2300	
Cc1nnc2c3ccccc3c(NC(C)c3cnccn3)nn12 (stereo not drawn) [Compound 72]					> 30000	
Cc1nnc2c3ccccc3c(N3CCN4CCCCC4C3)nn12 (stereo not drawn) [Compound 73]	0.5 °C				> 30000	0.2
Cc1nnc2c3ccccc3c(N3CCCC(N(C)C)C3)nn12 (stereo not drawn) [Compound 75]	0.4 °C	0.2			> 30000	
Cc1nnc2c3ccccc3c(N[C@H]3CCC[C@@H]3N(C)C)nn12 [Compound 76]	7.3 °C	2.4			168	
Cc1nnc2c3ccccc3c(N[C@@H](C)[C@H](O)c3ccccc3)nn12 [Compound 77]	0.3 °C	0.2				
Cc1nnc2c3ccccc3c(NCC(=O)c3ccccc3)nn12 [Compound 81]	1.0 °C					0.3
CN(C)[C@H]1CCCC[C@@H]1Nc1nn2c(C(F)(F)F)nnc2c2ccccc12 [Compound 83]	0.8 °C	0			> 30000	
CN(C)[C@H]1CCC[C@@H]1Nc1nn2c(C(F)(F)F)nnc2c2ccccc12 [Compound 84]	0.7 °C	0.2			> 30000	
FC(F)(F)c1nnc2c3ccccc3c(NCc3ccccc3)nn12 [Compound 85]	3.7 °C	0.9			> 30000	
CC(C)CC(CN(C)C)Nc1nn2c(C(F)(F)F)nnc2c2ccccc12 (stereo not drawn) [Compound 86]	0.02 °C				> 30000	0.2
CN(C)CCNc1nn2c(C(F)(F)F)nnc2c2ccccc12 [Compound 87]					> 30000	
CCC(CN(C)C)Nc1nn2c(C(F)(F)F)nnc2c2ccccc12 (stereo not drawn) [Compound 88]	0.4 °C				> 30000	0.1
CCC(CNc1nn2c(C(F)(F)F)nnc2c2ccccc12)N(C)C (stereo not drawn) [Compound 89]	0.4 °C				> 30000	0.2
CCN(CC)CC(C)Nc1nn2c(C(F)(F)F)nnc2c2ccccc12 (stereo not drawn) [Compound 90]	0.4 °C				> 30000	0.1
CCN1CCCC1CNc1nn2c(C(F)(F)F)nnc2c2ccccc12 (stereo not drawn) [Compound 91]	0.1 °C	0.1			> 30000	
Cc1nnc2c3ccccc3c(Cl)nn12 [Compound 94]	0 °C	0.2				
Cc1nnc2c3ccccc3c(NCCN3CCOCC3)nn12 [Compound 98]	0.7 °C	0.2				
Cc1nnc2c3ccccc3c(NCC3CCCOC3)nn12 (stereo not drawn) [Compound 99]	3.8 °C	1.5				
